One experiment has as its system MDA-MB-231 cells. Nature of the experiment: Antiproliferative assay, MDA-MB-231 cells. As to conditions: 72 hours; for IC50: read-out: MDA-MB-231 50% cell growth inhibition; for sensitivity of MDA-MB-231 cells, in words: FIG. 23 Panel B. It counts as cell-based, human. An excerpt: MDA-MB-231 cells, which were also derived from an adenocarcinoma of the breast, are less differentiated than the MCF-7 cells and fail to express functional p53 or estrogen receptors. This class of tumor cells contains important targets for new therapies, because loss of estrogen receptor expression is associated with poor patient prognosis. (Osborne, C. K. Breast Cane. Res. Treatm. 1998, 51, 227).
The inventors extrapolated to determine the IC50 for compounds with little cytotoxicity at 30,μM, the highest concentration tested. […] The enhanced sensitivity of MCF-7 to these compounds may be due to the expression of p53 in these cells.
Two compounds, 24 referred to herein as SR-4 and 27 referred to herein as SR-7, were examined in greater detail as to their effects on biological activity. The proliferation of MCF-7, MDA-MB-231 and SV40 transformed mouse embryonic fibroblasts was measured by a previously described colorimetric assay (Wipf P, Jung J-K, Rodriguez S, Lazo JS Synthesis and biological evaluation of Deoxypreussomerin A and Palmarumycin CP 1 and related naphthoquinone spiroketals. Tetrahedron 57:283-296, 2001 and Vogt A, Rice RL, Settineri CE, Yokokawa F, Yokokawa S, Wipf P and Lazo JS (1998) Disruption of insulin-like growth factor-I signaling and down-regulation of Cdc2 by SC-ααδ9, a novel small molecule antisignaling agent identified in a targeted array library. J Pharmacol Exptl Therap 287:806-813.). Briefly, the inventors seeded 4,000-6,000 cells per well in microtiter plates. Cells were allowed to attach overnight and treated with vehicle or compounds for 72 h, after which the medium was replaced with serum free medium containing 0.1% 3-[4,5-dimethylthiazol-2-yl]-2,5-diphenyl tetrazolium bromide. Plates were incubated for 3 hours in the dark and total cell number was determined by spectrophotometrically at 540 nm as previously described (Vogt A, Rice RL, Settineri CE, Yokokawa F, Yokokawa S, Wipf P and Lazo JS (1998) Disruption of insulin-like growth factor-1 signaling and down-regulation of Cdc2 by SC-ααδ9, a novel small molecule antisignaling agent identified in a targeted array library. J Pharmacol Exptl Therap 287:806-813.). […] Cells were maintained in RPMI 1640 medium containing 10% fetal bovine serum and the paclitaxel-resistant cells also contained 17 nM paclitaxel and 10 μM verapamil. Cells were plated (2,000/well) in 96-well plates and allowed to attach and grow for 72 hours (paclitaxel and verapamil were removed from resistant cell medium two weeks prior to this plating). They were then treated with 0.5% DMSO vehicle control or 0.08-10 μM compound. The number of cells was determined spectrophotometrically at 490 nm minus absorbance at 630 nm after exposure to 3-(4,5-dimethylthiazol-2-yl)-5-(3-carboxymethoxyphenyl)-2-(4-sulfophenyl)-2H-tetrazolium and N-methyldibenzopyurazine methyl sulfate.
Because of the potential importance of the tumor suppressor gene p53 and the estrogen receptor in controlling the cellular response to cytotoxic agents, the inventors also examined the sensitivity of MDA-MB-231 cells, which lack functional p53 and estrogen receptors. […] As might be expected, these p53 and estrogen receptor deficient cells were generally less sensitive to both natural products and analogs when compared to MCF-7 cells.

A further experiment deals with T1, Trx-1/TrxR (Homo sapiens, UniProt P10599+Q16881).
T1 construct: Thioredoxin reductase was purified from human placenta as previously described; made in house
T1 sequence (P10599 1-105): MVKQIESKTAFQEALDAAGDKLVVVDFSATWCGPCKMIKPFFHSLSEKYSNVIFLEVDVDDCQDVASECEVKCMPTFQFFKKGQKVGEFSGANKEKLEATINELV
T1 sequence (Q16881 1-499 isoform Q16881-5): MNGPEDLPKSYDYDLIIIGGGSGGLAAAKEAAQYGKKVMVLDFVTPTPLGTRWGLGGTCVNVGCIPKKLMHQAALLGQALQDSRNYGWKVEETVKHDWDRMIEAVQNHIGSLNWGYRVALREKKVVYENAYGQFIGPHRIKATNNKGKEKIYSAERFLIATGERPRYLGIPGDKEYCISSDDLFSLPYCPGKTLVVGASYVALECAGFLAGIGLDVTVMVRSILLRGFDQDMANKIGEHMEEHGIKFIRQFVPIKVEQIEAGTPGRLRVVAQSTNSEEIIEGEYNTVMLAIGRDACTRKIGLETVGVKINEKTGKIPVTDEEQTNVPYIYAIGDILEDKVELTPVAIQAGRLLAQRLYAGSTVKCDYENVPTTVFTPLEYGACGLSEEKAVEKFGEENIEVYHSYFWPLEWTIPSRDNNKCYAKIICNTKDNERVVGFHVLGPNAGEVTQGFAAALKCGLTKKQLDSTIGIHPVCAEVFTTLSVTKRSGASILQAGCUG
The experiment can be described thus: Trx-1/TrxR-dependent insulin reducing assay. As to conditions: for IC50: calculated from 5 concentrations (0.1 to 50 μM). The experiment is classed as biochemical. How it is done:
Thioredoxin reductase was purified from human placenta as previously described (Oblong, J.E.; Gasdaska, P.Y.; Sherrill, K.; Powis,G. Biochemistry 1993, 32, 7271) and recombinant human Trx-1 was prepared as previously described (Gasdaska, P.Y.; Oblong, J.E.; Cotgreave, I.A.; Powis,G. Biochem.Biophys.Acta 1994 ,1218 ,292). TrxR and Trx-1/TrxR activities were measured spectrophotometrically using previously published microtiter plate colorimetric assays, based on the increase in absorbance at 405 nm which occurs as dithionitrobenzoic acid (DTNB) is reduced by the enzyme-mediated transfer of reducing equivalents from NADPH (Gasdaska et al., Biochem.Biophys.Acta 1994 ,1218,292). Trx-1/TrxR-dependent insulin reducing activity was measured in an incubation with a final volume of 60 μL containing 100 mM HEPES buffer, pH 7.2,5 mM EDTA (HE buffer),1 mM NADPH, […],0.8 μM Trx-1 and 2.5 mg/mL bovine insulin. Incubations were for 30 min at 37 ° C. in flat-bottom 96-well microtiter plates. The reaction was stopped by the addition of 100 μL of 6 M guanidine-HC1, 50 mM Tris, pH 8.0, and 10 mM DTNB, and the absorbance measured to 405 nm. TrxR activity was measured in a final incubation volume of 60 μL containing HE buffer, 10 mM DTNB, 1.0 μM TrxR and 1 mM NADPH. Compounds were diluted in HE buffer and added to the wells as 20 μL aliquots, and TrxR was then added,also as 20 μL aliquots in HE buffer. To start the reaction NADPH and DTNB were added as a 20 μL aliquot in HE buffer and the plate was moved to the plate reader which had been preheated to 37 ° C. The optical density at 405 nm was measured every 10 s and initial reaction rates were measured.

Each structure is given as a SMILES string. Where two headings read alike, the source gives them in different places. Some results are limits rather than exact numbers.

As to `O=C1C=CC2(Oc3cccc4cccc(c34)O2)c2cccc(OCCc3ccccc3)c21` [SR-6, 8-(2-phenyl-ethoxy)-1-oxo-1,4-dihydronaphthalene-4-spiro-2′-naphto [1″,8″-de][1′,3′] dioxin], the IC50 was 4.6 µM in the experiment with MDA-MB-231 cells (Homo sapiens, MDA-MB-231) and above 50 µM at Trx-1/TrxR.
Consider `O=C1C=CC2(Oc3cccc4cccc(c34)O2)c2cccc(OCc3ccoc3)c21` [SR-10, 8-(furan-3-ylmethoxy)-1-oxo-1,4-dihydronaphthalene-4-spiro-2′-naphto [1′,8′-de][1′,3′] dioxin], for which the IC50 in the experiment on MDA-MB-231 cells (Homo sapiens, MDA-MB-231) was 2 µM; at Trx-1/TrxR, 23.2 µM.
As to `COc1cccc2c1C(=O)C=CC21OCCCO1` [TH-223], the IC50 in the experiment on MDA-MB-231 cells is 5 µM. On Trx-1/TrxR, the “Trx-1/TrxR inhibition, in words” value was “practically inactive” and the IC50 is 40.2 µM.
Turning to `CC(C)=CCC/C(C)=C/COc1cccc2c1C(=O)C=CC21Oc2cccc3cccc(c23)O1` [SR-9, (E,E)-8-(3,7-diemthyl-octa-2,6-dienyloxy)-1-oxo-1,4-dihydronaphthalene-4-spiro-2′-naphtol [1″,8″-de][1′,3′] dioxin], the IC50 is 2 µM in the experiment with MDA-MB-231 cells (Homo sapiens, MDA-MB-231) and above 50 µM at Trx-1/TrxR.
In the same order, the values of `COc1cccc(COc2cccc3c2C(=O)C=CC32Oc3cccc4cccc(c34)O2)c1` [SR-5, 8-(3-methoxy-benzyloxy)-1-oxo-1,4-dihydronaphthalene-4-spiro-2′-naphto [1″,8″-de][1′,3′] dioxin] are 2.7 µM and above 50 µM.
Taken in the same sequence, the figures for `CCCCCCOc1cccc2c1C(=O)C=CC21Oc2cccc3cccc(c23)O1` [SR-3, 8-hexyloxy-1-oxo-1,4-dihydronaphthalene-4-spiro-2′-naphto [1″,8″-de] [1′,3′] dioxin] were 13.6 µM and above 50 µM.
Taken in the same sequence, the figures for `COc1ccc(COc2cccc3c2C(=O)C=CC32Oc3cccc4cccc(c34)O2)cc1` [TH-39, 8-(4-methoxy-benzyloxy)-1-oxo-1,4-dihydronaphthalene4-spiro-2-naphto [1,8-de][1, 3]dioxin] were 2.2 µM and above 50 µM.
As for `C/C=C/COc1cccc2c1C(=O)C=CC21Oc2cccc3cccc(c23)O1` [SR-2, (E)-8-(but-2-enyloxy)-1-oxo-1,4-dihydronaphthalene-4-spiro-2′-naphto [1″,8″-de][1′,3′]dioxin], the IC50 with MDA-MB-231 cells (Homo sapiens, MDA-MB-231) is 2.9 µM; on Trx-1/TrxR it was above 50 µM.
Turning to `O=C1C=CC2(Oc3cccc4cccc(c34)O2)c2cccc(O)c21` [palmarumycin CP1, 8-hydroxy-1-oxo-1,4-dihydronaphthalene-4-spiro-2′-naphtho[1″,8″-de] [1′,3′] dioxin, reference compound], the “sensitivity of MDA-MB-231 cells, in words” value with MDA-MB-231 cells is reported as “equally sensitive”. The IC50 in the experiment with MDA-MB-231 cells (Homo sapiens, MDA-MB-231) came to 2.4 µM. At Trx-1/TrxR, the “selectivity for Trx-1 over TrxR” value is recorded as above 30 fold and the IC50 was 0.35 µM.
Consider `C=CCOc1cccc2c1C(=O)C=CC21Oc2cccc3cccc(c23)O1` [SR-14, 8-allyloxy-1-oxo-1,4-dihydronaphthalene-4-spiro-2′-naphto [1″,8″-de][1′,3′] dioxin], for which the IC50 with MDA-MB-231 cells (Homo sapiens, MDA-MB-231) is 2.7 µM; on Trx-1/TrxR it was 23.2 µM.
Taken in the same sequence, the figures for `O=C1C=CC2(Oc3cccc4cccc(c34)O2)c2cccc(OCc3cccnc3)c21` [SR-12, 8-(pyridin-3-ylmethoxy)-1-oxo-1,4-dihydronaphthalene-4-spiro-2′-naphto [1″,8″-de][1′,3′] dioxin] were 1.4 µM and above 50 µM.
Turning to `O=C1C=CC2(OCCO2)c2cccc(O)c21` [TH-169], the IC50 in the experiment with MDA-MB-231 cells (Homo sapiens, MDA-MB-231) came out at 4.3 µM. Besides, on Trx-1/TrxR, the “Trx-1/TrxR inhibition, in words” value is recorded as “maintains significant activity”; the “fold less active than palmarumycin CP1 on Trx-1/TrxR” value is listed as “approximately 10 fold”; the “selectivity for Trx-1 over TrxR” value was “approximately 2 fold”; the IC50 was 3.4 µM.
Turning to `O=C1C=CC2(Oc3cccc4cccc(c34)O2)c2cccc(OCc3ccncc3)c21` [SR-13, 8-(pyridin-4-ylmethoxy)-1-oxo-1,4-dihydronaphthalene-4-spiro-2′-naphtol [1″,8″-de][1′,3′] dioxin], the IC50 in the experiment with MDA-MB-231 cells (Homo sapiens, MDA-MB-231) is 7.3 µM; at Trx-1/TrxR, above 50 µM.
In the same order, the values of `O=C1C=CC2(Oc3cccc4cccc(c34)O2)c2cccc(OC/C=C/c3ccccc3)c21` [SR-1, (E)-8-(3-phenyl-allyloxy)-1-oxo-1,4-dihydronaphthalene-4-spiro-2′-naphto[1″, 8″-de] [1′,3′] dioxin] are 7.5 µM and above 50 µM.
For the compound `O=C1C=CC2(Oc3cccc4cccc(c34)O2)c2cccc(OCc3ccccn3)c21` [SR-11, 8-(pyridin-2-ylmethoxy)-1-oxo-1,4-dihydronaphthalene-4-spiro-2′-naphto [1″,8″-de][1′,3′] dioxin], the IC50 in the experiment with MDA-MB-231 cells (Homo sapiens, MDA-MB-231) is 2.8 µM; at Trx-1/TrxR, 41.8 µM.
With `O=C1C=CC2(Oc3cccc4cccc(c34)O2)c2cccc(OCc3ccco3)c21` [SR-7, 8-(furan-2-ylmethoxy)-1-oxo-1,4-dihydronaphthalene-4-spiro-2′-naphto [1″,8″-de][1′,3′] dioxin], in the experiment on MDA-MB-231 cells, the “sensitivity of MDA-MB-231 cells, in words” value was “equally sensitive”. The IC50 was 2.5 µM in the experiment on MDA-MB-231 cells (Homo sapiens, MDA-MB-231) and above 50 µM on Trx-1/TrxR.

These data come from patent publication US6673937B2, “Syntheses and methods of use of new antimitotic agents” (The University of Pittsburgh, priority 2000, dated 2004).
